Measurements as given in patent US11464726B2, “1,4: 3,6 dianhydrohexitols for moisturising the skin” (ROQUETTE FRERES, priority 2017, dated 2022).

Tested on: surface layers of the skin (superficial stratum corneum)
Assay: Moisturizing efficiency of gel evaluated by corneometry
Format: in vivo, human
Conditions: for mean hydration value (Corneometer capacitance): gel 6% by weight + 1% carbomer, around 2 mg/cm^2, inner forearm, ten volunteers; for Mean variations in % of hydration: (T…h-T0)/T0*100, gel 6% by weight
Procedure: For this, these polyols were incorporated into a cosmetic preparation for topical use in gel form. […] The placebo consists only of 1% by weight of gelling carbomer in water. The moisturizing efficiency of each of the preparations for topical use was evaluated by corneometry. Corneometry is a scientifically recognized method for measuring the hydration of the surface layers of the skin. It is based on the determination of the capacitance of the superficial stratum corneum. The study was carried out with ten healthy volunteers aged from 18 to 65 years old. The moisturizing efficiency of each of the five formulae was evaluated 1 hour, 2 hours and 4 hours after its application in the laboratory on the inner face of the forearm. […] For each formula, an amount of around 2 mg/cm^2 was applied to an area of 3×3 cm, in non-occlusive epicutaneous mode. In addition to the zones treated with the five formulae, two additional zones were evaluated: one treated with a placebo and the other without treatment for the duration of the study. The measurements were carried out with a Corneometer® CM285 included in a Multiprobe Adapter System MPA® (Courage-Khazaka GmbH, Germany). The instrument determines the capacitance of the epidermis, which is proportional to the water content thereof, at a depth of around 15 μm. This method is based on the difference between the electrical permittivity of the water which is 81 and that of other substances (<7). The probe of the Corneometer (surface area of 49 mm^2) is positioned perpendicular to the test area which was delimited beforehand with a pencil. The measurement of the capacitance lasts 1 second. Each measurement is carried out twice and the average of the two measurements is noted. The instrument gives the values in arbitrary units ranging from 0 to 130, with an error margin of ±3%. Each volunteer rested for around 1 minute in an air-conditioned room before each measurement with the Corneometer® in order to avoid abnormal results due to excessive perspiration or stress. Table 2 below reports the mean hydration values expressed in arbitrary units (AU).

| Structure (SMILES) | mean hydration value (Corneometer capacitance) (T0, before application) | mean hydration value (Corneometer capacitance) (T1 h after application) | Mean variations in % of hydration (T1 h vs T0) | mean hydration value (Corneometer capacitance) (T2 h after application) | Mean variations in % of hydration (T2 h vs T0) | mean hydration value (Corneometer capacitance) (T4 h after application) | Mean variations in % of hydration (T4 h vs T0) | moisturizing power given to the gel (in words, short-term hydration and maintenance over time (T4h vs T0)) |
| --- | --- | --- | --- | --- | --- | --- | --- | --- |
| C[N+](C)(C)CC(=O)O [Betaine] | 43.39 AU | 55.61 AU | 28.2% | 54.30 AU | 25.1% | 50.74 AU | 16.9% | – |
| OCC(O)CO [Glycerol] | 42.03 AU | 57.05 AU | 35.7% | 56.15 AU | 33.6% | 56.57 AU | 34.6% | – |
| O[C@@H]1CO[C@H]2[C@@H]1OC[C@@H]2O [Isosorbide, 1,4:3,6-dianhydrosorbitol] | 46.54 AU | 56.60 AU | 21.6% | 52.88 AU | 13.6% | 52.50 AU | 12.8% | satisfactory moisturizing power, comparable to that of betaine |
| OC[C@@H](O)[C@@H](O)[C@H](O)[C@@H](O)CO [Sorbitol] | 48.60 AU | 54.16 AU | 11.4% | 49.11 AU | 1.0% | 46.91 AU | −3.5% | – |
| OC[C@@H](O)[C@H](O)[C@@H](O)CO [Xylitol] | 45.94 AU | 55.37 AU | 20.5% | 52.68 AU | 14.7% | 45.28 AU | −1.4% | – |
